# According to US20240246964A1 (Arbutus Biopharma Corporation, priority 2021, published 2024):
# Columns and labels:
# [1] = biological target: PD-L1 His protein / PD-1 Fc protein (Homo sapiens (Human), UniProt Q9NZQ7); assay: HTRF Assay (PD-1/PD-L1 interaction); format: binding; settings: PD-L1 His 6 nM, PD-1 Fc 6 nM
# human PD-L1 = human PD-L1 (Homo sapiens (Human), UniProt Q9NZQ7); assay: T cell activation luciferase reporter cell culture system (T Cell Activation Assay); format: cell-based; settings: luciferase reporter assay; PD-L1 aAPC/CHO-K1 cells with PD-1 effector Jurkat T cells
# Sequence of human PD-L1 (Q9NZQ7 19-290): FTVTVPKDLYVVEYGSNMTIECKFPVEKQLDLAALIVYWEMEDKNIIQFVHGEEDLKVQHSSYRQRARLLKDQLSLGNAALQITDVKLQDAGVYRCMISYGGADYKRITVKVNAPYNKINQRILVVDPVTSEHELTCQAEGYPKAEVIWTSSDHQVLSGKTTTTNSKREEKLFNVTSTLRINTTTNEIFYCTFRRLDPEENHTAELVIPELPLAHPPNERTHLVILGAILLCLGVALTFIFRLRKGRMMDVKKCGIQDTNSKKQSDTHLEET
# Sequence of PD-L1 His protein / PD-1 Fc protein (Q9NZQ7 19-238): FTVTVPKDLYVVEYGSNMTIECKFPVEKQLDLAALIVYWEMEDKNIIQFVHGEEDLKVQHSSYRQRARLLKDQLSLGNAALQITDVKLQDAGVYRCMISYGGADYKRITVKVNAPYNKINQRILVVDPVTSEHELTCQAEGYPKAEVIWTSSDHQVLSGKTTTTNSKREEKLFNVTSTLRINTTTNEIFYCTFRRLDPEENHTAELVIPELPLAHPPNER
SMILES,IC50 [1] [nM],EC50 (human PD-L1) [nM]
"COc1cc(-c2nccc(-c3cccc(-c4ccc(CN5CC(C)(O)C5)c(OC)n4)c3Cl)c2Cl)ccc1CN1CC2(CNC(=O)C2)C1 [Example 518, 2-(4-(3-Chloro-4-(2-chloro-3-(5-((3-hydroxy-3-methylazetidin-1-yl)methyl)-6-methoxypyridin-2-yl)phenyl)pyridin-2-yl)-2-methoxybenzyl)-2,6-diazaspiro[3.4]octan-7-one]",2.42,9.77
"COc1cc(-c2nccc(-c3cccc(-c4ccc(CN(C)CC5CN(C(C)=O)C5)c(OC)n4)c3Cl)c2Cl)ccc1CN(C)CC1CN(C(C)=O)C1 [Example 499, 1-(3-((((6-(3-(2-(4-((((1-Acetylazetidin-3-yl)methyl)(methyl)amino)methyl)-3-methoxyphenyl)-3-chloropyridin-4-yl)-2-chlorophenyl)-2-methoxypyridin-3-yl)methyl)(methyl)amino)methyl)azetidin-1-yl)ethan-1-one]",2.07,88.5
"COc1nc(-c2cccc(-c3ccnc(-c4cc(OC)c5nc(CNC[C@@H]6CCC(=O)N6)cn5c4)c3Cl)c2Cl)ccc1CNC[C@@H]1CCC(=O)N1 [Example 310, (S)-5-((((6-(2-Chloro-3-(3-chloro-2-(8-methoxy-2-(((((S)-5-oxopyrrolidin-2-yl)methyl)amino)methyl)imidazo[1,2-a]pyridin-6-yl)pyridin-4-yl)phenyl)-2-methoxypyridin-3-yl)methyl)amino)methyl)pyrrolidin-2-one]",1.8,90.5
"COc1cc(-c2nccc(-c3cccc(-c4ccc(CNC5CC6(COC6)C5)c(OC)n4)c3Cl)c2Cl)cnc1CNC1CC2(COC2)C1 (stereo not shown) [Compound 429, N-((4-(3-(5-(((2-Oxaspiro[3.3]heptan-6-yl)amino)methyl)-6-methoxypyridin-2-yl)-2-chlorophenyl)-3-chloro-5′-methoxy-[2,3′-bipyridin]-6′-yl)methyl)-2-oxaspiro[3.3]heptan-6-amine]",4.1,71.4
"COc1nc(-c2cccc(-c3ccnc(-c4ccc(CNC5CCN(C(C)=O)CC5)c(F)c4)c3Cl)c2Cl)ccc1CNC1CCN(C(C)=O)CC1 [Example 282, 1-(4-(((6-(3-(2-(4-(((1-Acetylpiperidin-4-yl)amino)methyl)-3-fluorophenyl)-3-chloropyridin-4-yl)-2-chlorophenyl)-2-methoxypyridin-3-yl)methyl)amino)piperidin-1-yl)ethan-1-one]",1.56,85.3
"COc1nc(-c2cccc(-c3ccnc(-c4ccc5c(c4)CNC5)c3Cl)c2Cl)ccc1CN(C)C1CCN(C(C)=O)CC1 [Compound 163, 1-(4-(((6-(2-chloro-3-(3-chloro-2-(isoindolin-5-yl)pyridine-4-yl)phenyl)-2-methoxypyridin-3-yl)methyl)(methyl)amino)piperidin-1-yl)ethan-1-one]",3.29,≥ 10000
"COc1nc(-c2cccc(-c3ccnc(-c4ccc5c(CNC[C@@H]6CCCO6)cn(C)c5c4)c3Cl)c2Cl)ccc1CNC[C@@H]1CCC(=O)N1 [Compound 41, (S)-5-((((6-(2-chloro-3-(3-chloro-2-(1-methyl-3-(((((S)-tetrahydrofuran-2-yl)methyl)amino)methyl)-1H-indol-6-yl)pyridin-4-yl)phenyl)-2-methoxypyridin-3-yl)methyl)amino)methyl)pyrrolidin-2-one]",33.9,164
"COc1cc(CNC[C@@H]2CCC(=O)N2)cc(-c2nccc(-c3cccc(-c4ccc(CNC[C@@H]5CCC(=O)N5)c(OC)n4)c3Cl)c2Cl)c1 [Compound 153, (S)-5-((((6-(2-chloro-3-(3-chloro-2-(3-methoxy-5-(((((S)-5-oxopyrrolidin-2-yl)methyl)amino)methyl)phenyl)pyridin-4-yl)phenyl)-2-methoxypyridin-3-yl)methyl)amino)methyl)pyrrolidin-2-one]",5.14,782
"CCC(=O)N1CCC(NCc2ccc(-c3nccc(-c4cccc(-c5ccc(CNC6CCN(C(=O)CC)CC6)c(OC)n5)c4Cl)c3Cl)cc2OC)CC1 [Example 344, 1-(4-(((6-(2-Chloro-3-(3-chloro-2-(3-methoxy-4-(((1-propionylpiperidin-4-yl)amino)methyl)phenyl)pyridin-4-yl)phenyl)-2-methoxypyridin-3-yl)methyl)amino)piperidin-1-yl)propan-1-one]",6.41,14.9
"COc1nc(-c2cccc(-c3ccnc(-c4ccc5c(CN(C)CCO)cn(C)c5c4)c3Cl)c2Cl)ccc1CNC[C@@H]1CCC(=O)N1 [Compound 39, (S)-5-((((6-(2-chloro-3-(3-chloro-2-(3-(((2-hydroxyethyl)(methyl)amino)methyl)-1-methyl-1H-indol-6-yl)pyridin-4-yl)phenyl)-2-methoxypyridin-3-yl)methyl)amino)methyl)pyrrolidin-2-one]",1,61.8
"COc1nc(-c2cccc(-c3nccc(-c4ccc(CN5CCC(O)CC5)c(OC)n4)c3Cl)c2Cl)ccc1CN1CCC(O)CC1 [Example 759, 1-((3′-Chloro-2′-(2-chloro-3-(5-((4-hydroxypiperidin-1-yl)methyl)-6-methoxypyridin-2-yl)phenyl)-6-methoxy-[2,4′-bipyridin]-5-yl)methyl)piperidin-4-ol]",0.63,16.9
"COc1cc(-c2nccc(-c3cccc(-c4ccc(CNC[C@@H]5CCC(=O)N5)c(OC)n4)c3Cl)c2Cl)cc(F)c1CNC1CC2(C1)CN(C(C)=O)C2 [Compound 210, (S)-5-((((6-(3-(2-(4-(((2-acetyl-2-azaspiro[3.3]heptan-6-yl)amino)methyl)-3-fluoro-5-methoxyphenyl)-3-chloropyridin-4-yl)-2-chlorophenyl)-2-methoxypyridin-3-yl)methyl)amino)methyl)pyrrolidin-2-one]",2.12,26.6
"Cc1c(NC(=O)c2ccc(CNC[C@@H]3CCC(=O)N3)cn2)cccc1-c1ccnc(-c2ccc(CNC[C@@H]3CCC(=O)N3)c(OC(F)F)c2)c1Cl [Example 725, N-(3-(3-Chloro-2-(3-(difluoromethoxy)-4-(((((S)-5-oxopyrrolidin-2-yl)methyl)amino)methyl)phenyl)pyridin-4-yl)-2-methylphenyl)-5-(((((S)-5-oxopyrrolidin-2-yl)methyl)amino)methyl)picolinamide]",0.53,120
"COc1cc(-c2nccc(-c3cccc(-c4ccc(CN5CC6(CNC(=O)C6)C5)c(OC)n4)c3Cl)c2Cl)cc(F)c1CN1CC2(CNC(=O)C2)C1 [Example 287, 2-((6-(2-Chloro-3-(3-chloro-2-(3-fluoro-5-methoxy-4-((7-oxo-2,6-diazaspiro[3.4]octan-2-yl)methyl)phenyl)pyridin-4-yl)phenyl)-2-methoxypyridin-3-yl)methyl)-2,6-diazaspiro[3.4]octan-7-one]",4.67,16.4
"COc1nc(-c2ccnc(-c3cccc(NC(=O)c4cn(C)c(=O)n(C)c4=O)c3Cl)c2Cl)ccc1CN1CC2(C1)CN(C(C)=O)C2 [Compound 731, N-(3-(5-((6-Acetyl-2,6-diazaspiro[3.3]heptan-2-yl)methyl)-3′-chloro-6-methoxy-[2,4′-bipyridin]-2′-yl)-2-chlorophenyl)-1,3-dimethyl-2,4-dioxo-1,2,3,4-tetrahydropyrimidine-5-carboxamide]",0.9,1170
"COc1cc(-c2nccc(-c3cccc(-c4ccc(CNC5CCN(C(C)=O)CC5)c(OC)n4)c3Cl)c2Cl)cnc1CNC1CCN(C(C)=O)CC1 [Compound 375, 1-(4-(((6-(3-(6′-(((1-Acetylpiperidin-4-yl)amino)methyl)-3-chloro-5′-methoxy-[2,3′-bipyridin]-4-yl)-2-chlorophenyl)-2-methoxypyridin-3-yl)methyl)amino)piperidin-1-yl)ethan-1-one]",1.24,46.4
"COc1nc(-c2cccc(-c3ccnc(-c4cc5c(=O)n(C)c(CNC[C@H](C)O)nn5c4)c3Cl)c2Cl)ccc1CNC[C@@H]1CCC(=O)N1 [Compound 91, 6-(3-chloro-4-(2-chloro-3-(6-methoxy-5-(((((S)-5-oxopyrrolidin-2-yl)methyl)amino)methyl)pyridin-2-yl)phenyl)pyridin-2-yl)-2-((((S)-2-hydroxypropyl)amino)methyl)-3-methylpyrrolo[2,1-f][1,2,4]triazin-4(3H)-one]",4.4,221
"COc1cc(-c2nccc(-c3cccc(-c4ccc(CNC5CCN(C(C)=O)CC5)c(OC)n4)c3C)c2Cl)ccc1CNC1CCN(C(C)=O)CC1 [Example 399, 1-(4-(((6-(3-(2-(4-(((1-acetylpiperidin-4-yl)amino)methyl)-3-methoxyphenyl)-3-chloropyridin-4-yl)-2-methylphenyl)-2-methoxypyridin-3-yl)methyl)amino)piperidin-1-yl)ethan-1-one]",0.185,77.7
"COc1cc(-c2nccc(-c3cccc(-c4ccc(CNC[C@@H]5CCC(=O)N5)c(OC)n4)c3Cl)c2Cl)cc(F)c1CN1CC2(CNC(=O)C2)C1 [Compound 145, (S)-2-(4-(3-chloro-4-(2-chloro-3-(6-methoxy-5-((((5-oxopyrrolidin-2-yl)methyl)amino)methyl)pyridin-2-yl)phenyl)pyridin-2-yl)-2-fluoro-6-methoxybenzyl)-2,6-diazaspiro[3.4]octan-7-one]",2.02,17.7
"COc1nc(-c2cccc(-c3ccnc(-c4ccc5c(c4)CN(CCNC[C@@H]4CCC(=O)N4)C5=O)c3Cl)c2Cl)ccc1CN1CC2(C1)CN(C(C)=O)C2 [Compound 144, (S)-5-(4-(3-(5-((6-acetyl-2,6-diazaspiro[3.3]heptan-2-yl)methyl)-6-methoxypyridin-2-yl)-2-chlorophenyl)-3-chloropyridin-2-yl)-2-(2-(((5-oxopyrrolidin-2-yl)methyl)amino)ethyl)isoindolin-1-one]",2.68,≥ 10000
